In patent publication EP0428423A2, “Aryloxy alkyl benzenes, processes for their preparation and pharmaceutical compositions containing them” (LIPHA S.A., priority 1989, dated 1991):
Like-named read-outs stand apart in the source and are kept apart here.

Columns and labels:
[1] = system: plasmas riches en plaquettes provenant de sang de rat; test: Platelet anti-aggregation in vitro, ADP-induced (Born aggregometer); type: cell-based; details: in vitro, aggregating agent ADP, rat platelet-rich plasma, 37°, M not defined in the text, mM printed only in the TICLOPIDINE line; for IC50: read-out: M à 50
Method: Les études ont été réalisées sur des plasmas riches en plaquettes provenant de sang de rat, l'agrégation étant induite par addition d'acide Adénosine diphosphorique. Les courbes néphélométriques d'agrégation sont obtenues en utilisant un agrégomètre de type BORN, le plasma étant placé en incubation à 37° avec agitation continue de 1100 t/mn (cf. BORN G.V.R et CROSS J. - J. Physiol. 168 (1962) 178.

ECHANGEUR D'ANIONS = biological target: T1, ECHANGEUR D'ANIONS (Homo sapiens, UniProt P02730); test: Anion exchanger of human erythrocytes; type: cell-based, ERYTHROCYTES HUMAINS; details: read-out: EFFET SUR L'ECHANGEUR D'ANIONS IC 50
T1 construct: systèmes de transport du sodium et du potassium des érythrocytes humains; endogenous in cells; host or cells: human erythrocytes
T1 sequence (P02730 1-911): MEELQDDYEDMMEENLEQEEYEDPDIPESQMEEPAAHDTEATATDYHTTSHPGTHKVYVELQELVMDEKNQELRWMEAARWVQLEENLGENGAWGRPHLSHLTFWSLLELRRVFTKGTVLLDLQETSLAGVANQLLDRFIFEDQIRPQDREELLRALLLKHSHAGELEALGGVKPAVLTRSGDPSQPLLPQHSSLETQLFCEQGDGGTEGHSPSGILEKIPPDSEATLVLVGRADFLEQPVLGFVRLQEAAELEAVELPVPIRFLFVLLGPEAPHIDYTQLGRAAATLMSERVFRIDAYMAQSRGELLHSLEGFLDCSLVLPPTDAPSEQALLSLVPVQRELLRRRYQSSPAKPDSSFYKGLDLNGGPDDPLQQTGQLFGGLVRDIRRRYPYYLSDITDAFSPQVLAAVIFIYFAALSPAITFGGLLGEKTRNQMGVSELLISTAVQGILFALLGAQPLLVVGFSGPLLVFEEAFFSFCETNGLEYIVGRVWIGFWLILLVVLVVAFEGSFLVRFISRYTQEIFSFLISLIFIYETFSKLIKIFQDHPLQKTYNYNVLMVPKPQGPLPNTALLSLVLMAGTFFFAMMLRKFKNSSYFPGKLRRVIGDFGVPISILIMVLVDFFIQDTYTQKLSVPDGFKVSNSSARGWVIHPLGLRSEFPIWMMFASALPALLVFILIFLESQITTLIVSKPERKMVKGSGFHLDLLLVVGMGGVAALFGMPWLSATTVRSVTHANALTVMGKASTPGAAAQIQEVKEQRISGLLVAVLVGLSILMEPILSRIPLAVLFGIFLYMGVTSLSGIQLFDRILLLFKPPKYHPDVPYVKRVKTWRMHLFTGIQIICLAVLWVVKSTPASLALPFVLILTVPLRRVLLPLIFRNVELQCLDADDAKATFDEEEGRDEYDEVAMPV
From the text: Cet effet a été étudié selon la méthodologie décrite par G. GARAY et coll. dans Naunyn-Schmidberg's Arch. Pharmakol. 334 (1986) 202-209 et dans Bioch. Pharm. 33 (1984) 2013-2020.

RAT = test: Diuretic activity in the rat (hourly urine volume, sodium and potassium assay); type: in vivo; details: po; R = RAT; diuretic activity; read-out: Dose minimale active
From the text: (§1) d'urine sont déterminés toutes les heures. Le dosage de sodium et du potassium est effectué par spectrophotométrie.

SOURIS = test: Diuretic activity in the mouse (hourly urine volume, sodium and potassium assay); type: in vivo; details: S = SOURIS; for minimal effective dose: Mus musculus, po, diuretic activity, read-out: Dose minimale active
From the text: as §1

COTRANSPORT Na-K = biological target: T2, COTRANSPORT Na-K (Homo sapiens, UniProt P55011); test: Na-K cotransport of human erythrocytes; type: cell-based, ERYTHROCYTES HUMAINS
T2 construct: systèmes de transport du sodium et du potassium des érythrocytes humains; endogenous in cells; host or cells: human erythrocytes
T2 sequence (P55011 1-1212): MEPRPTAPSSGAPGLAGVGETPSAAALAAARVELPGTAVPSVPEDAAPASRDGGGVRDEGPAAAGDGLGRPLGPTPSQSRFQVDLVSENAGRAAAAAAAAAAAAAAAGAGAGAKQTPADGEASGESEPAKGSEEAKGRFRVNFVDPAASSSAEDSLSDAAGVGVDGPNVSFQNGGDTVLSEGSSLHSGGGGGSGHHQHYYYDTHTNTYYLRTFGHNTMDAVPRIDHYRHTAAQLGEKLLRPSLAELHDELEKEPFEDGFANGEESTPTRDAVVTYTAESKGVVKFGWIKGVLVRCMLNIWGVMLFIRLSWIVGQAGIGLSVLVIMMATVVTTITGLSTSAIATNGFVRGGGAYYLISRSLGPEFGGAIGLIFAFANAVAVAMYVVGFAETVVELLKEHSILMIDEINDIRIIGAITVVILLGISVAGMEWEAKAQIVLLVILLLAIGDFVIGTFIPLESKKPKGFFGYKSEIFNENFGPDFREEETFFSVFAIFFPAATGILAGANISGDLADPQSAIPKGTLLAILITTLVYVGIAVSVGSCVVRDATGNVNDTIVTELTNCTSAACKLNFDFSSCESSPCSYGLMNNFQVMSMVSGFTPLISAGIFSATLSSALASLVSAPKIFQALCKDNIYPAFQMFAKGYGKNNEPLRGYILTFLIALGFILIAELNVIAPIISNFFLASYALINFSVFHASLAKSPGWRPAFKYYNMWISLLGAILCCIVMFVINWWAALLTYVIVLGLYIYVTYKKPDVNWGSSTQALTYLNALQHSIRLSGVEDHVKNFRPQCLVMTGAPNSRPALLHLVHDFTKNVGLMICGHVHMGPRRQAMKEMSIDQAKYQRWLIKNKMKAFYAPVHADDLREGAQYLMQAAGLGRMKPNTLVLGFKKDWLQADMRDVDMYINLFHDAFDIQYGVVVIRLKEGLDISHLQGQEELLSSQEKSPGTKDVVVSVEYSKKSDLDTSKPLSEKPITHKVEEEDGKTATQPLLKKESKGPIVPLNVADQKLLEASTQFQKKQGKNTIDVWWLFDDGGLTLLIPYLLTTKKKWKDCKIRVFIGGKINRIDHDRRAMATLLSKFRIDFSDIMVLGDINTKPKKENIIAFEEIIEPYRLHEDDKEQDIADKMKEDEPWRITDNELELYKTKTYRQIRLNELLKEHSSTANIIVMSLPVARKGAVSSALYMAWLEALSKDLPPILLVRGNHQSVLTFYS
From the text: Cet effet a été étudié selon la méthodologie décrite par G. GARAY et coll. dans Naunyn-Schmidberg's Arch. Pharmakol. […] Pharm.

[2] = system: rats mâles SHR (souche OKAMOTO); test: Antihypertensive action in the non-anaesthetised SHR rat (systolic blood pressure, sphygmomanometric method); type: in vivo; details: 60 mg/kg PO, acute or chronic not given, 24 h after dosing
From the text: L'étude a été effectuée sur des lots de rats mâles SHR (souche OKAMOTO) âgés de 16 semaines. La pression artérielle systolique est déterminée par la méthode sphygmomanométrique (électro sphygmogra- phe NARCO biosystems type PE 300). Les mesures de tension sont réalisées 24 heures après administration d'un composé de formule générale I, la pression artérielle systolique est calculée à partir de la moyenne de 6 à 8 mesures.

[3] = human erythrocytes, read-out: EFFET SUR LE COTRANSPORT Na-K IC 50
[4] = PO, at the dose (minimal active dose)

SMILES	IC50 [1]	IC50 (ECHANGEUR D'ANIONS)	minimal effective dose (RAT)	minimal effective dose (SOURIS)	further results
Cc1ccc(O)c(CCOc2ccc(F)cc2)c1 [Ex 54]	–	–	–	–	M à 50 [1]: inactif
Cc1cccc(C)c1NC(=O)c1cc(S(N)(=O)=O)c(Cl)cc1O [XIPAMIDE, reference compound]	–	25 µM	–	–	–
Oc1cc2c(cc1CCOc1ccc(F)cc1)OCCO2 [ex 107]	–	–	25 mg/kg	100 mg/kg	–
CC(COc1ccc(F)cc1)c1ccccc1O (stereo not shown) [ex 172]	0.95 mM	75 µM	25 mg/kg	100 mg/kg	IC50 (COTRANSPORT Na-K; [3]): ~400 µM
NS(=O)(=O)c1cc2c(cc1Cl)NCNS2(=O)=O [HYDROCHLOROTHIAZIDE]	–	–	–	–	Variation de l'effet anti-hyper-tenseur 24 heures après produit [2]: FUROSEMIDE non actif HYDROCHLOROTHIAZIDE non actif
Oc1ccc(Oc2ccccc2)cc1CCOc1ccc(F)cc1 [Ex 100]	1.1 mM	–	–	–	–
NS(=O)(=O)c1cc(C(=O)O)c(NCc2ccco2)cc1Cl [FUROSEMIDE, reference compound]	–	–	12 mg/kg	25 mg/kg	Variation de l'effet anti-hyper-tenseur 24 heures après produit [2]: FUROSEMIDE non actif HYDROCHLOROTHIAZIDE non actif
Cc1ccc(CCOc2ccc(F)cc2)c(O)c1C [Ex 78]	0.7 mM	–	–	–	–
CCCCNc1cc(C(=O)O)cc(S(N)(=O)=O)c1Oc1ccccc1 [BUMETANIDE, reference compound]	–	300 µM	–	–	IC50 (COTRANSPORT Na-K): 0.66 µM
Oc1ccc2ccccc2c1CCOc1ccc(F)cc1 [ex 48]	–	–	25 mg/kg	100 mg/kg	–

More lines, main results first:

IC50 [1]	IC50 (ECHANGEUR D'ANIONS)	SMILES	minimal effective dose (RAT)	minimal effective dose (SOURIS)	further results
0.5 mM	–	CCOC(=O)c1ccc(OCCc2ccccc2O)cc1 [Ex 90]	–	–	–
1.55 mM	–	CCCc1cccc(CCOc2ccc(F)cc2)c1O [Ex 86]	–	–	–
0.6 mM	–	Oc1ccccc1CCOc1cccc2ccccc12 [Ex 58]	–	–	–
1.2 mM	12 µM	Oc1ccc(O)c(CCOc2ccccc2)c1 [ex 42]	12 mg/kg	–	IC50 (COTRANSPORT Na-K; [3]): 40 µM; Pouvoir diurétique en % (SOURIS; [4]): Inactif; Rapport Na/K en % (SOURIS; [4]): Inactif
0.8 mM	4 µM	Oc1ccccc1CCOc1ccc(F)cc1 [ex 30]	12 mg/kg	25 mg/kg	IC50 (COTRANSPORT Na-K; [3]): 170 µM
0.5 mM	–	C=CCOc1ccc(CCOc2ccccc2)c(O)c1 [Ex 64]	–	–	–
